Experimental data as given in paper PMC8317212 (Journal of medicinal chemistry, 2016).
Structures can show the parent of a compound that is named as a salt. Where two headings read alike, the source gives them in different places.

What was measured:
Format in all cases: cell-based
[1] = target: human 5-HT2B (Homo sapiens, UniProt P41595); assay: FLIPR calcium flux assay, 5-HT2B; conditions: for Emax 5-HT2B: HEK-293 cells stably expressing human receptor
[2] = target: human 5-HT2A (Homo sapiens, UniProt P28223); assay: FLIPR calcium flux assay, 5-HT2A
[3] = target: T1, human 5-HT2C-INI (Homo sapiens, UniProt P28335); assay: FLIPR calcium flux assay, 5-HT2C; conditions: for EC50: read-out: EC50, nM 5-HT2C, FLIPR, HEK-293 cells stably expressing human receptor
T1 sequence (P28335 33-458): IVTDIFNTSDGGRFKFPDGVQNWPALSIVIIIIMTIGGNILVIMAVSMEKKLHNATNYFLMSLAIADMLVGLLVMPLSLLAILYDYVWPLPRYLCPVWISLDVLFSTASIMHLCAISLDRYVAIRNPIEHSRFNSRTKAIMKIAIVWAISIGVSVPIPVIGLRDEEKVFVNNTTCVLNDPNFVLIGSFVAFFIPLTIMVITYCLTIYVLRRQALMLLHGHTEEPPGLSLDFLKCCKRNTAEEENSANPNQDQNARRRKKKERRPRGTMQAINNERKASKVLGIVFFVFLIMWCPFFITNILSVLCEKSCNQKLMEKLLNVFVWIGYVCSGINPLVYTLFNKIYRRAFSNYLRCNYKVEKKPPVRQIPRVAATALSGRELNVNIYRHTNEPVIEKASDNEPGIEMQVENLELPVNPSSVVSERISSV

[4] = EC50, nM 5-HT2B, FLIPR, HEK-293 cells, NA = no activity (Emax < 15%) at 10 μM

Sequence of human 5-HT2B (P41595 whole entry): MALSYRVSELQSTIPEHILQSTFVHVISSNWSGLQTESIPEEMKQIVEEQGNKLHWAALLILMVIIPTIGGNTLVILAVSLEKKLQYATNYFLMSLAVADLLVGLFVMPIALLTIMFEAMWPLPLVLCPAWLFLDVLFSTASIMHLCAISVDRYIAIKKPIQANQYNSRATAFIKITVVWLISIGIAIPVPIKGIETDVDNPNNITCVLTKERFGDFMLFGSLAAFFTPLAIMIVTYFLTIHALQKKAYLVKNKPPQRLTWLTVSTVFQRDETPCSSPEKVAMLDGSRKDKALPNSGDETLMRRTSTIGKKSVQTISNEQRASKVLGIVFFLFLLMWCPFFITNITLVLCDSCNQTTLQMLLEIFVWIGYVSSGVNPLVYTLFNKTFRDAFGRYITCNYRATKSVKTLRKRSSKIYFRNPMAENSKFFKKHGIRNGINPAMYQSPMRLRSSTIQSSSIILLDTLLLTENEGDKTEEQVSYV
Sequence of human 5-HT2A (P28223 whole entry): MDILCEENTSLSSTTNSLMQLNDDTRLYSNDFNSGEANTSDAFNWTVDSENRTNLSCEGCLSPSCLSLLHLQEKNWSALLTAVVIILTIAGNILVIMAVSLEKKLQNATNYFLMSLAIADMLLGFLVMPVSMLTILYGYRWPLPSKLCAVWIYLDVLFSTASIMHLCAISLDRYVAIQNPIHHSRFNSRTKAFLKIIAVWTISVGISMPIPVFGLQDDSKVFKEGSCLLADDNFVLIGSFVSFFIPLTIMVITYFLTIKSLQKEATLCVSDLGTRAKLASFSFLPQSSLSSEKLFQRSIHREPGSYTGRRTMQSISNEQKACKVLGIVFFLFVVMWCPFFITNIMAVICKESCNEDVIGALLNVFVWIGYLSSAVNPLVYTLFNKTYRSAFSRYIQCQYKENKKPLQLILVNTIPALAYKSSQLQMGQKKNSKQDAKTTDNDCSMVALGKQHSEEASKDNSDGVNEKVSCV

SMILES	EC50, nM 5-HT2A [2]	EC50 [3]	further results
Cl.NCC1CC1c1cc(F)c(F)cc1OCCF (single isomer, unassigned; (-)) [(–)-21a, (–)-[2-[4,5-Difluoro-2-(2-fluoroethoxy)phenyl]cyclopropyl]methanamine Hydrochloride]	NA (no activity (Emax < 15%) at 10 μM)	–	EC50, nM 5-HT2B [1]: NA (no activity (Emax < 15%) at 10 μM)
C=CCOc1ccc(F)c(F)c1C1CC1CN.Cl (single isomer, unassigned; (-)) [(–)-22b, (–)-[2-[6-(Allyloxy)-2,3-difluorophenyl]cyclopropyl]methanamine hydrochloride]	NA (no activity (Emax < 15%) at 10 μM)	–	–
NCC1CC1c1cc(F)c(F)cc1OCCF (single isomer, unassigned; (+)) [(+)-21a, (+)-[2-[4,5-Difluoro-2-(2-fluoroethoxy)phenyl]cyclopropyl]methanamine Hydrochloride]	–	7.3 nM	–
COc1ccc(Cl)c(Cl)c1C1CC1CN.Cl (single isomer, unassigned; (-)) [(–)-20f, (–)-[2-(2,3-Dichloro-6-methoxyphenyl)cyclopropyl]methanamine Hydrochloride]	–	–	selectivity over 5-HT2B ([1]; 5-HT2C vs 5-HT2B): 50 fold
NCC1CC1c1cc(Cl)c(Cl)cc1OCCF (single isomer, unassigned; (+)) [(+)-21e, (+)-[2-[4,5-Dichloro-2-(2-fluoroethoxy)phenyl]cyclopropyl]methanamine Hydrochloride]	–	18 nM	EC50 [1, 4]: > 10000 nM
C=CCOc1ccc(F)c(Cl)c1C1CC1CN.Cl (single isomer, unassigned; (+)) [(+)-22g, (+)-[2-[6-(Allyloxy)-2-chloro-3-fluorophenyl]cyclopropyl]methanamine Hydrochloride]	NA (no activity (Emax < 15%) at 10 μM)	–	–
Cl.NCC1CC1c1c(OCCF)ccc(Cl)c1Cl (single isomer, unassigned; (+)) [(+)-21f, (+)-[2-[2,3-Dichloro-6-(2-fluoroethoxy)phenyl]cyclopropyl]methanamine Hydrochloride]	–	–	Emax 5-HT2B ([1]; FLIPR): 99%
Cl.NCC1CC1c1c(OCCF)ccc(Cl)c1F (single isomer, unassigned; (-)) [(–)-21d, (–)-[2-[3-Chloro-2-fluoro-6-(2-fluoroethoxy)phenyl]cyclopropyl]methanamine Hydrochloride]	NA (no activity (Emax < 15%) at 10 μM)	–	EC50, nM 5-HT2B [1]: NA (no activity (Emax < 15%) at 10 μM)
Cl.NCC1CC1c1c(OCCF)ccc(F)c1Cl (single isomer, unassigned; (-)) [(–)-21g, (–)-[2-[2-Chloro-3-fluoro-6-(2-fluoroethoxy)phenyl]cyclopropyl]methanamine Hydrochloride]	NA (no activity (Emax < 15%) at 10 μM)	–	Emax 5-HT2B ([1]; FLIPR): 29%
C=CCOc1ccc(Cl)c(F)c1C1CC1CN.Cl (single isomer, unassigned; (+)) [(+)-22d, (+)-[2-[6-(Allyloxy)-3-chloro-2-fluorophenyl]cyclopropyl]methanamine Hydrochloride]	NA (no activity (Emax < 15%) at 10 μM)	116 nM	–
NCC1CC1c1c(OCCF)ccc(F)c1F (single isomer, unassigned; (+)) [(+)-21b, (+)-[2-[2,3-Difluoro-6-(2-fluoroethoxy)phenyl]cyclopropyl]methanamine Hydrochloride]	–	25 nM	–
NCC1CC1c1c(OCCF)ccc(F)c1Cl (single isomer, unassigned; (+)) [(+)-21g, (+)-[2-[2-Chloro-3-fluoro-6-(2-fluoroethoxy)phenyl]cyclopropyl]methanamine Hydrochloride]	–	49 nM	–
C=CCOc1ccc(F)c(Cl)c1C1CC1CN.Cl (single isomer, unassigned; (-)) [(–)-22g, (–)-[2-[6-(Allyloxy)-2-chloro-3-fluorophenyl]cyclopropyl]methanamine Hydrochloride]	NA (no activity (Emax < 15%) at 10 μM)	–	–
C=CCOc1cc(Cl)c(Cl)cc1C1CC1CN.Cl (single isomer, unassigned; (-)) [(–)-22e, (–)-[2-[2-(Allyloxy)-4,5-dichlorophenyl]cyclopropyl]methanamine Hydrochloride]	NA (no activity (Emax < 15%) at 10 μM)	–	EC50, nM 5-HT2B [1]: NA (no activity (Emax < 15%) at 10 μM)
Cl.NCC1CC1c1c(OCCF)ccc(Cl)c1Cl (single isomer, unassigned; (-)) [(–)-21f, (–)-[2-[2,3-Dichloro-6-(2-fluoroethoxy)phenyl]cyclopropyl]methanamine Hydrochloride]	NA (no activity (Emax < 15%) at 10 μM)	–	EC50 [1, 4]: > 10000 nM; Emax 5-HT2B ([1]; FLIPR): 62%
C=CCOc1cc(F)c(Cl)cc1C1CC1CN.Cl (single isomer, unassigned; (+)) [(+)-22c, (+)-[2-[2-(Allyloxy)-5-chloro-4-fluorophenyl]cyclopropyl]methanamine Hydrochloride]	–	42 nM	Emax 5-HT2B ([1]; FLIPR): 44%
Cl.NCC1CC1c1c(OCCF)ccc(Cl)c1F (single isomer, unassigned; (+)) [(+)-21d, (+)-[2-[3-Chloro-2-fluoro-6-(2-fluoroethoxy)phenyl]cyclopropyl]methanamine Hydrochloride]	–	71 nM	EC50, nM 5-HT2B [1]: NA (no activity (Emax < 15%) at 10 μM)
COc1ccc(F)c(Cl)c1C1CC1CN.Cl (single isomer, unassigned; (+)) [(+)-20g, (+)-[2-(2-Chloro-3-fluoro-6-methoxyphenyl)cyclopropyl]methanamine Hydrochloride]	–	–	Emax 5-HT2B ([1]; FLIPR): 60%
NCC1CC1c1cc(Cl)c(F)cc1OCCF (single isomer, unassigned; (+)) [(+)-21c, (+)-[2-[5-Chloro-4-fluoro-2-(2-fluoroethoxy)phenyl]cyclopropyl]methanamine Hydrochloride]	–	24 nM	EC50 ([1]; read-out: EC50, nM 5-HT2B): 506 nM
C=CCOc1cc(Cl)c(Cl)cc1C1CC1CN (single isomer, unassigned; (+)) [(+)-22e, (+)-[2-[2-(Allyloxy)-4,5-dichlorophenyl]cyclopropyl]methanamine Hydrochloride]	–	61 nM	–
C=CCOc1cc(F)c(Cl)cc1C1CC1CN.Cl (single isomer, unassigned; (-)) [(–)-22c, (–)-[2-[2-(Allyloxy)-5-chloro-4-fluorophenyl]cyclopropyl]methanamine Hydrochloride]	NA (no activity (Emax < 15%) at 10 μM)	–	–
Cl.NCC1CC1c1c(OCCF)ccc(F)c1F (single isomer, unassigned; (-)) [(–)-21b, (–)-[2-[2,3-Difluoro-6-(2-fluoroethoxy)phenyl]cyclopropyl]methanamine Hydrochloride]	NA (no activity (Emax < 15%) at 10 μM)	–	–
Cl.NCC1CC1c1cc(Cl)c(F)cc1OCCF (single isomer, unassigned; (-)) [(–)-21c, (–)-[2-[5-Chloro-4-fluoro-2-(2-fluoroethoxy)phenyl]cyclopropyl]methanamine Hydrochloride]	NA (no activity (Emax < 15%) at 10 μM)	–	–
C=CCOc1ccc(Cl)c(Cl)c1C1CC1CN.Cl (single isomer, unassigned; (+)) [(+)-22f, (+)-[2-[6-(Allyloxy)-2,3-dichlorophenyl]cyclopropyl]methanamine Hydrochloride]	NA (no activity (Emax < 15%) at 10 μM)	–	EC50, nM 5-HT2B [1]: NA (no activity (Emax < 15%) at 10 μM)
C=CCOc1ccc(Cl)c(F)c1C1CC1CN.Cl (single isomer, unassigned; (-)) [(–)-22d, (–)-[2-[6-(Allyloxy)-3-chloro-2-fluorophenyl]cyclopropyl]methanamine Hydrochloride]	–	–	EC50, nM 5-HT2B [1]: NA (no activity (Emax < 15%) at 10 μM)
COc1ccc(Cl)c(Cl)c1C1CC1CN.Cl (single isomer, unassigned; (+)) [(+)-20f, (+)-[2-(2,3-Dichloro-6-methoxyphenyl)cyclopropyl]methanamine Hydrochloride]	–	–	Emax 5-HT2B ([1]; FLIPR): 46%; fold weaker at 5-HT2C than its enantiomer ([3]; compared to the (–)-enantiomer): 20 fold; Emax 5-HT2A ([2]; FLIPR, HEK-293 cells stably expressing human receptor): 76%
Cl.NCC1CC1c1cc(Cl)c(Cl)cc1OCCF (single isomer, unassigned; (-)) [(–)-21e, (–)-[2-[4,5-Dichloro-2-(2-fluoroethoxy)phenyl]cyclopropyl]methanamine Hydrochloride]	NA (no activity (Emax < 15%) at 10 μM)	–	EC50, nM 5-HT2B [1]: NA (no activity (Emax < 15%) at 10 μM)
C=CCOc1ccc(F)c(F)c1C1CC1CN.Cl (single isomer, unassigned; (+)) [(+)-22b, (+)-[2-[6-(Allyloxy)-2,3-difluorophenyl]cyclopropyl]methanamine hydrochloride]	NA (no activity (Emax < 15%) at 10 μM)	36 nM	EC50 ([1]; read-out: EC50, nM 5-HT2B): 3340 nM
